Test results from patent US5712148A (Synaptic Pharmaceutical Corporation, priority 1995, dated 1998).
Values joined by “and” are separate entries in the source; they are usually repeats but may differ in a detail not shown here. Equal entries are not always repeated. Where two headings read alike, the source gives them in different places.

Key:
[1] = tested on: mouse betaine/GABA transporter; details: data from Lopez-Corcuera et al., 1992; estimated from one or two concentrations of inhibitor; cited from earlier work
[2] = biological target: T1, hS1a (human betaine/GABA transporter, hBGT) (Homo sapiens, UniProt P48065); test: Inhibition of specific [^3 H]GABA uptake in COS7 (transient) or LMtk- (stable; hS1a-3) cells expressing hS1a; type: cell-based; parameters: Translation of a long open reading frame predicts a protein of 614 amino acids with 12 putative transmembrane domains; expressed in transfected cells; details: for IC50: estimated from data for one or two concentrations of inhibitor (Table 1), not corrected for [^3 H]GABA concentration; for inhibitory potency at hS1a in words: inhibition of [^3 H]GABA uptake; for inhibition at 100 µM / inhibition at 500 µM: read-out: % Inhibition of specific [^3 H]GABA uptake; for potency at hS1a vs dog and mouse transporters, in words: comparison across clones
T1 sequence (P48065 1-614 C10Y): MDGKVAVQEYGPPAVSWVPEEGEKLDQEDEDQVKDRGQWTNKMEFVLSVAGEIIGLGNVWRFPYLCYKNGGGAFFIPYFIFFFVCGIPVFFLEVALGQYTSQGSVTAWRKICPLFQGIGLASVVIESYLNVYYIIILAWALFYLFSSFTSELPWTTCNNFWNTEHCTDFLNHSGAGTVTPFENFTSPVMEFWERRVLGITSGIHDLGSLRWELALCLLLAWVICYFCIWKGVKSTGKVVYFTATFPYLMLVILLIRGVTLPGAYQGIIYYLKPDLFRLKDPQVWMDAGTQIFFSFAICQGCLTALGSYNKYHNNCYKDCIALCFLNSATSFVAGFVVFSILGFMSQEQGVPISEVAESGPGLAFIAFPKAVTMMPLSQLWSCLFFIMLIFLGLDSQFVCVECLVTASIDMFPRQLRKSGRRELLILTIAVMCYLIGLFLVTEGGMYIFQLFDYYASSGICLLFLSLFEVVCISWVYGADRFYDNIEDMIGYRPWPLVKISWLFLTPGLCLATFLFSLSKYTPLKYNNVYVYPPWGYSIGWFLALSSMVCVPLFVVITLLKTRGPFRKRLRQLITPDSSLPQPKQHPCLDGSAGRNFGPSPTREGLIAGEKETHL
Procedure: (§1) Transport was also measured in suspension. The details of this method will described in detail in a subsequent publication (Borden et al., manuscript in preparation). Briefly, transient (COS-7) or stable (LM) transfectants were removed from culture plates with trypsin/EDTA, and transferred to suspension culture. The cells were grown in a temperature-controlled shaking incubator, using a medium containing methylcellulose. To measure transport the cells were washed by centrifugation, and resuspended in HBS. The assay was performed in 96-well microtiter plates (total volume=0.25 ml/well). […] Cell-associated radioactivity retained on the filters was determined by scintillation counting.

[3] = tested on: dog betaine/GABA transporter; details: data from Yamauchi et al., 1992; estimated from one or two concentrations of inhibitor; cited from earlier work
[4] = biological target: T1, hS1a (human betaine/GABA transporter, hBGT); details: in words
Procedure: as §1
(§2) For example, the dog and mouse clones were expressed in oocytes, whereas we employed COS-7 or LMtk^- fibroblasts for the human clone. Additionally, we measured transport for 10 minutes at 37° C., while the dog clone was assayed for 30 minutes at 25° C. […] Another important factor is our use of suspension cultures.

[5] = tested on: dog betaine/GABA transporter; details: Yamauchi et al., 1992, cited from earlier work
GAT-2 = biological target: T2, GAT-2 (Rattus norvegicus, UniProt P31646); test: Affinity of GABA at GAT-2, suspension vs attached cells; type: cell-based; details: Borden, unpublished
T2 sequence (P31646 1-602): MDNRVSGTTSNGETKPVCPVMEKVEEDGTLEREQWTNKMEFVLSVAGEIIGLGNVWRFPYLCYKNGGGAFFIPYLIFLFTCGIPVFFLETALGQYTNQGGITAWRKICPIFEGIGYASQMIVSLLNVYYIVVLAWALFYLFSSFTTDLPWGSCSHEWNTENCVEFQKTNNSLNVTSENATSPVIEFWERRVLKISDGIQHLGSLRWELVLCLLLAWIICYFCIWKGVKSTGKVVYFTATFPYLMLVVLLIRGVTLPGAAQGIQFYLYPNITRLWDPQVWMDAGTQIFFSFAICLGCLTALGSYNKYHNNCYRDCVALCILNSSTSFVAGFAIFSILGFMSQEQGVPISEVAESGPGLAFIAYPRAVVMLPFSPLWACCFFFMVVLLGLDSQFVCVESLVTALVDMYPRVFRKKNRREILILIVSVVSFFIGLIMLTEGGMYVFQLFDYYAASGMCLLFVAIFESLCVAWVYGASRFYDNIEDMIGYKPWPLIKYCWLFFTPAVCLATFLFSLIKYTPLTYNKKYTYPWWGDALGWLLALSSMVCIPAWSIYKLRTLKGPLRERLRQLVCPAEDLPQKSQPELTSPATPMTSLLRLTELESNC
Text: […]. […] Another important factor is our use of suspension cultures. […]. Liu et al., 1992a).

GAT-3 = biological target: T3, GAT-3 (Rattus norvegicus, UniProt P31647); test: Affinity of GABA at GAT-3, suspension vs attached cells; type: cell-based; details: Borden, unpublished
T3 sequence (P31647 1-627): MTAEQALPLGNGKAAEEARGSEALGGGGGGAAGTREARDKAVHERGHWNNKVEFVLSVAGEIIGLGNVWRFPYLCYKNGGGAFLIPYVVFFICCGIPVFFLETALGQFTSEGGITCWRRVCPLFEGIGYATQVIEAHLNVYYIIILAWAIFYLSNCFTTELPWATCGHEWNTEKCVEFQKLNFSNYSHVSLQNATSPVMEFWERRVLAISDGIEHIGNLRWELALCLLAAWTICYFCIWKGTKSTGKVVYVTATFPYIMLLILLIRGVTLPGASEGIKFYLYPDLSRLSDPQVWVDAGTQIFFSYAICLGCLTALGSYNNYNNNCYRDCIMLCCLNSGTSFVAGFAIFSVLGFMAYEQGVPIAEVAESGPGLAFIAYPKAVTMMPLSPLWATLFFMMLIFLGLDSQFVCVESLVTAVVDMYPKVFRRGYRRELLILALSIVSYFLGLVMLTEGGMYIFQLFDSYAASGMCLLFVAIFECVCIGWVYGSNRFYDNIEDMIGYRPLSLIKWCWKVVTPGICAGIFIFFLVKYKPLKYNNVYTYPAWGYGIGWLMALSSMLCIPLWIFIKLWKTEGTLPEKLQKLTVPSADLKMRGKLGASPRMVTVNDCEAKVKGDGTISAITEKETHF
Procedure: as §2

[6] = tested on: mouse betaine/GABA transporter; test: Inhibition at mouse betaine/GABA transporter clone (literature comparison); type: cell-based; details: comparison across clones
Procedure: as §2

| Molecule | IC50 [1] | IC50 ([2]; read-out: IC50 (human)) | inhibitory potency at hS1a in words [2] | inhibition at 100 µM [2] | also measured |
| --- | --- | --- | --- | --- | --- |
| O=C(O)C1=CCCNC1 [guvacine] | 2800 µM | 1900 µM | weak inhibitors | 5 ± 5% | – |
| NCC[C@H](N)C(=O)O [L-DABA, L-(2,4)diaminobutyric acid] | – | – | – | 24 ± 24% | – |
| N[C@@H]1CCC[C@H](C(=O)O)C1 (relative stereo) [ACHC, cis-3-aminocyclohexanecarboxylic acid] | – | – | weak inhibitors | 0% | – |
| O=C(O)C1CCCNC1 (centres unmarked) [nipecotic acid] | – | – | – | 34 ± 19% | IC50 [3]: 4700 µM; potency at hS1a vs dog and mouse transporters, in words [2]: more potent at hS1a than at either of the other two transporters |
| NCCC(=O)O [β-alanine] | 1900 µM | 138 µM and 150 to 250 µM | – | 42 ± 22% | IC50 [3]: 2400 µM; potency at hS1a vs dog and mouse transporters, in words [2]: more potent at hS1a than at either of the other two transporters |
| C=C[C@H]1C[N@@]2CC[C@H]1C[C@@H]2[C@@H](O)c1ccnc2ccc(OC)cc12 [quinidine] | 49 µM | – | – | 92% | IC50 ([2]; IC50 (human)): 488 µM and ~50 µM; inhibition at 500 µM [2]: 85% |
| hydroxynipecotic acid [OH-nipecotic acid] | – | – | weak inhibitors | – | IC50 ([2]; 10 min, listed as Hydroxynipecotic acid, 10 min, read-out: IC50 (human)): > 1000 µM; IC50 ([2]; 10 min, read-out: IC50 (human)): 1150 µM; % Inhibition of specific [^3 H]GABA uptake ([2]; inhibitor 100 μM, 50 nM [^3 H]GABA, 10 minutes, 37° C., mean ± SEM): 8 ± 8% |
| C[N+](C)(C)CC(=O)O [betaine] | 206 µM | 258 µM and 150 to 250 µM | – | – | inhibition at 500 µM [2]: 66 ± 15% |
| NCCCC(=O)O [GABA, γ-aminobutyric acid] | – | – | – | – | affinity of hBGT for GABA vs other GABA transporters [4]: lower than that of other GABA transporters; higher affinity of the transporter for GABA than for betaine [5]: 4 fold; affinity for GABA vs betaine, in words ([5]; betaine transporter cloned from MDCK dog kidney cells): higher affinity for GABA than for betaine; increase in affinity of GABA in suspension vs attached cells (GAT-2) (GAT-2): about 10 fold; increase in affinity of GABA in suspension vs attached cells (GAT-3) (GAT-3): about 10 fold |
| O=C(CCc1ccc(O)cc1)c1c(O)cc(O)cc1O [phloretin] | 37 µM | 258 µM | – | – | IC50 [3]: 200 µM; potency at mouse BGT vs dog or human clones, in words [6]: more potent at the mouse BGT than at the dog or human clones; inhibition at 500 µM [2]: 66% |
| Cc1ccsc1C(=CCCN1CCC[C@@H](C(=O)O)C1)c1sccc1C [(R)-Tiagabine] | – | – | weak inhibitors | 12 ± 7% | – |
